Measured values published in patent US20250382305A1 (PTC THERAPEUTICS, INC., priority 2022, published 2025).

Legend:
[1] = test system: Total ATXN3 (tATXN3) protein; assay: Endogenous Total ATXN3 (tATXN3) Protein Assay (MSD immunoassay of cell lysates); assay type: cell-based; settings: average IC50, total ATXN3 protein in cell lysate after 48 h with compound (Table 1)
Outline: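 By electrochemiluminescent MSD sandwich immunoassay (mouse monoclonal capture, rabbit monoclonal and SULFO-TAG anti-rabbit detection), endogenous ATXN3 was quantified in lysates of cells treated 48 h at 37° C at 10,000 cells/well. Treatment used a 7-point 3.16-fold duplicate dilution series, with average IC50 grouped into star categories.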

ATXN3 pre-mRNA = assay: RT-qPCR Assay to Quantify Exon 4 Skipping in ATXN3 pre-mRNA in Cells; assay type: cell-based; settings: percent exon 4 skipping in ATXN3 pre-mRNA, RT-qPCR of cell lysates; average IC50
Outline: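 IC50 derives from a dose-response fit of percent exon 4 skipping, quantified by RT-qPCR on crude lysates. Compounds tested as 7-point 3.16-fold dilutions in duplicate; cells (10,000/well) were exposed for 24 h at 37 °C before lysis.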

6-((1R,2R)-2-aminocyclohexyl)-N-benzyl-2-chloro-7-methylthieno[3,2-d]pyrimidin-4-amine or 6-((1S,2S)-2-aminocyclohexyl)-N-benzyl-2-chloro-7-methylthieno[3,2-d]pyrimidin-4-amine [Compound 48]
IC50 [1]: 30 to 300 nM
IC50 (ATXN3 pre-mRNA): 30 to 300 nM

Cc1c([C@H]2CC=C(C(=O)Nc3ccccc3)C[C@@H]2N)sc2c(NCc3cccs3)cc(Cl)nc12 [Compound 353, (4S,5S)-5-amino-4-(5-chloro-3-methyl-7-((thiophen-2-ylmethyl)amino)thieno[3,2-b]pyridin-2-yl)-N-phenylcyclohex-1-ene-1-carboxamide]
IC50 [1]: 30 to 300 nM
IC50 (ATXN3 pre-mRNA): 30 to 300 nM

N[C@@H]1CCCCC[C@H]1c1sc2c(NCc3cccs3)cc(Cl)nc2c1Br [Compound 74, 2-((1R,2R)-2-aminocycloheptyl)-3-bromo-5-chloro-N-(thiophen-2-ylmethyl)thieno[3,2-b]pyridin-7-amine]
IC50 [1]: > 1000 nM
IC50 (ATXN3 pre-mRNA): > 1000 nM

5-chloro-3-iodo-2-((1R,6R)-6-(methylamino)cyclohex-3-en-1-yl)-N-(thiophen-2-ylmethyl)thieno[3,2-b]pyridin-7-amine and 5-chloro-3-iodo-2-((1S,6S)-6-(methylamino)cyclohex-3-en-1-yl)-N-(thiophen-2-ylmethyl)thieno[3,2-b]pyridin-7-amine [Compound 387]
IC50 [1]: 30 to 300 nM
IC50 (ATXN3 pre-mRNA): 300 to 1000 nM

2-((3R,4S)-3-aminotetrahydro-2H-pyran-4-yl)-N-benzyl-3,5-dichlorothieno[3,2-b]pyridin-7-amine and 2-((3S,4R)-3-aminotetrahydro-2H-pyran-4-yl)-N-benzyl-3,5-dichlorothieno[3,2-b]pyridin-7-amine [Compound 388]
IC50 [1]: 30 to 300 nM
IC50 (ATXN3 pre-mRNA): 30 to 300 nM

N[C@H]1CC=CC[C@@H]1c1c(I)c2nc(Cl)cc(NCc3cccs3)c2n1C(F)F [Compound 325, 2-((1S,6S)-6-aminocyclohex-3-en-1-yl)-5-chloro-1-(difluoromethyl)-3-iodo-N-(thiophen-2-ylmethyl)-1H-pyrrolo[3,2-b]pyridin-7-amine]
IC50 [1]: 30 to 300 nM
IC50 (ATXN3 pre-mRNA): 30 to 300 nM

N[C@H]1CCCO[C@@H]1c1sc2c(NCc3ccccc3)nc(Cl)nc2c1Br [Compound 69, 6-((2S,3S)-3-aminotetrahydro-2H-pyran-2-yl)-N-benzyl-7-bromo-2-chlorothieno[3,2-d]pyrimidin-4-amine]
IC50 [1]: 30 to 300 nM
IC50 (ATXN3 pre-mRNA): ≤ 30 nM

CCc1c([C@H]2CCCCCC[C@@H]2N)sc2c(NCc3cccs3)cc(Cl)nc12 [Compound 164, 2-((1S,2S)-2-aminocyclooctyl)-5-chloro-3-ethyl-N-(thiophen-2-ylmethyl)thieno[3,2-b]pyridin-7-amine]
IC50 [1]: > 1000 nM
IC50 (ATXN3 pre-mRNA): 300 to 1000 nM

Cc1c([C@H]2CC=CC[C@@H]2N)n(C(F)F)c2c(NCc3ccccc3)nc(Cl)nc12 [Compound 399, 6-((1S,6S)-6-aminocyclohex-3-en-1-yl)-N-benzyl-2-chloro-5-(difluoromethyl)-7-methyl-5H-pyrrolo[3,2-d]pyrimidin-4-amine]
IC50 [1]: 300 to 1000 nM
IC50 (ATXN3 pre-mRNA): 300 to 1000 nM

Cc1c([C@@H]2CCCC[C@@H]2N)sc2c(NCc3cccs3)cc(Cl)nc12 [Compound 50, 2-((1R,2S)-2-aminocyclohexyl)-5-chloro-3-methyl-N-(thiophen-2-ylmethyl)thieno[3,2-b]pyridin-7-amine]
IC50 [1]: 300 to 1000 nM
IC50 (ATXN3 pre-mRNA): 30 to 300 nM

N[C@H]1CC=CC[C@@H]1c1sc2c(NCc3cccs3)nc(Cl)nc2c1I [Compound 182, 6-((1S,6S)-6-aminocyclohex-3-en-1-yl)-2-chloro-7-iodo-N-(thiophen-2-ylmethyl)thieno[3,2-d]pyrimidin-4-amine]
IC50 [1]: ≤ 30 nM
IC50 (ATXN3 pre-mRNA): ≤ 30 nM

N[C@@H]1CCCO[C@H]1c1sc2c(NCc3ccccc3)cc(Cl)nc2c1I [Compound 132, 2-((2R,3R)-3-aminotetrahydro-2H-pyran-2-yl)-N-benzyl-5-chloro-3-iodothieno[3,2-b]pyridin-7-amine]
IC50 [1]: 300 to 1000 nM
IC50 (ATXN3 pre-mRNA): > 1000 nM

Cc1c([C@@H]2CCCC[C@H]2N)sc2c(NCc3ccco3)nc(Cl)nc12 [Compound 59, 6-((1R,2R)-2-aminocyclohexyl)-2-chloro-N-(furan-2-ylmethyl)-7-methylthieno[3,2-d]pyrimidin-4-amine]
IC50 [1]: > 1000 nM
IC50 (ATXN3 pre-mRNA): 300 to 1000 nM

Cc1c([C@@]2(F)CCCC[C@@H]2N)sc2c(NCc3ccco3)cc(Cl)nc12 [Compound 41, 2-((1R,2S)-2-amino-1-fluorocyclohexyl)-5-chloro-N-(furan-2-ylmethyl)-3-methylthieno[3,2-b]pyridin-7-amine]
IC50 [1]: 30 to 300 nM
IC50 (ATXN3 pre-mRNA): 30 to 300 nM

N[C@@H]1CCC[C@H]1c1sc2c(NCc3cccs3)cc(Cl)nc2c1Cl [Compound 2, 2-((1R,2R)-2-aminocyclopentyl)-3,5-dichloro-N-(thiophen-2-ylmethyl)thieno[3,2-b]pyridin-7-amine]
IC50 [1]: > 1000 nM
IC50 (ATXN3 pre-mRNA): > 1000 nM

CC#CCNc1cc(Cl)nc2c(Br)c([C@H]3OCCC[C@@H]3N)sc12 [Compound 343, 2-((2S,3S)-3-aminotetrahydro-2H-pyran-2-yl)-3-bromo-N-(but-2-yn-1-yl)-5-chlorothieno[3,2-b]pyridin-7-amine]
IC50 [1]: 30 to 300 nM
IC50 (ATXN3 pre-mRNA): 30 to 300 nM

N[C@H]1CCCO[C@@H]1c1sc2c(NCc3ccco3)cc(Cl)nc2c1Br [Compound 115, 2-((2S,3S)-3-aminotetrahydro-2H-pyran-2-yl)-3-bromo-5-chloro-N-(furan-2-ylmethyl)thieno[3,2-b]pyridin-7-amine]
IC50 [1]: ≤ 30 nM
IC50 (ATXN3 pre-mRNA): ≤ 30 nM

Cc1c([C@@H]2OCCC[C@H]2N)sc2c(NCc3ccco3)cc(Cl)nc12 [Compound 134, ((2R,3R)-3-aminotetrahydro-2H-pyran-2-yl)-5-chloro-N-(furan-2-ylmethyl)-3-methylthieno[3,2-b]pyridin-7-amine]
IC50 [1]: > 1000 nM
IC50 (ATXN3 pre-mRNA): > 1000 nM

2-((3R,4R)-3-aminotetrahydro-2H-pyran-4-yl)-3-bromo-5-chloro-N-(thiophen-2-ylmethyl)thieno[3,2-b]pyridin-7-amine and 2-((3S,4S)-3-aminotetrahydro-2H-pyran-4-yl)-3-bromo-5-chloro-N-(thiophen-2-ylmethyl)thieno[3,2-b]pyridin-7-amine [Compound 146]
IC50 [1]: > 1000 nM
IC50 (ATXN3 pre-mRNA): > 1000 nM

N[C@H]1CC=CC[C@@H]1c1c(I)c2nc(Cl)nc(NCc3ccccc3)c2n1C(F)F [Compound 348, 6-((1S,6S)-6-aminocyclohex-3-en-1-yl)-N-benzyl-2-chloro-5-(difluoromethyl)-7-iodo-5H-pyrrolo[3,2-d]pyrimidin-4-amine]
IC50 [1]: 30 to 300 nM
IC50 (ATXN3 pre-mRNA): 30 to 300 nM

N[C@@H]1CCC[C@H]1c1sc2c(NCc3cccs3)cc(Cl)nc2c1I [Compound 154, 2-((1R,2R)-2-aminocyclopentyl)-5-chloro-3-iodo-N-(thiophen-2-ylmethyl)thieno[3,2-b]pyridin-7-amine]
IC50 [1]: > 1000 nM
IC50 (ATXN3 pre-mRNA): > 1000 nM

N[C@@H]1COCC[C@H]1c1sc2c(NCc3nccs3)cc(Cl)nc2c1I [Compound 408, 2-((3S,4R)-3-aminotetrahydro-2H-pyran-4-yl)-5-chloro-3-iodo-N-(thiazol-2-ylmethyl)thieno[3,2-b]pyridin-7-amine]
IC50 [1]: 30 to 300 nM
IC50 (ATXN3 pre-mRNA): 30 to 300 nM
